The source of these data is ChEMBL document CHEMBL1156254, “4-Pregnen-21-ol-3,20-dione-21-(4-bromobenzenesulfonate) (NSC 88915) and related novel steroid derivatives as tyrosyl-DNA phosphodiesterase (Tdp1) inhibitors” (J Med Chem, 2009).

SMILES strings stand for the structures. The source made the active and inactive calls. The rule behind the calls is not given here. Bounds are passed on as bounds.

Tyrosyl-DNA phosphodiesterase 1 (Homo sapiens), sequence (Q9NUW8 whole entry): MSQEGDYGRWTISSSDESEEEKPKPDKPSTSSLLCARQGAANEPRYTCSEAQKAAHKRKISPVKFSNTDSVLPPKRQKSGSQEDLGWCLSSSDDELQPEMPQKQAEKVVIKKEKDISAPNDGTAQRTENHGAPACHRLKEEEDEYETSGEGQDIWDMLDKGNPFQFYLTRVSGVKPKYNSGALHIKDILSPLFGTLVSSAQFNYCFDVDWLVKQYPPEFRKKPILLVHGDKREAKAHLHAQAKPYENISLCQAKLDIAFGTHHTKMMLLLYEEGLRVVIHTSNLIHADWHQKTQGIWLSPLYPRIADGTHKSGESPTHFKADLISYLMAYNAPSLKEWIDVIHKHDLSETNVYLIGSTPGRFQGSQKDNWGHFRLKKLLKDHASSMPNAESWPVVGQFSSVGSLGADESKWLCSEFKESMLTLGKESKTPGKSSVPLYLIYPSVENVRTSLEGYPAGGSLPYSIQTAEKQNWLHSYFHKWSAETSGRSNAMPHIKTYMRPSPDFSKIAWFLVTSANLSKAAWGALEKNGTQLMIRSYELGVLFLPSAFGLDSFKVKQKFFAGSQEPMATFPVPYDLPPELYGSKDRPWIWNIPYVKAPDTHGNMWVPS

The target in the first experiment is DNA repair nuclease/redox regulator APEX1 (Homo sapiens) (UniProt P27695). Description: Inhibition of human APE1 up to 100 uM.
DNA repair nuclease/redox regulator APEX1 (Homo sapiens), sequence (P27695 whole entry): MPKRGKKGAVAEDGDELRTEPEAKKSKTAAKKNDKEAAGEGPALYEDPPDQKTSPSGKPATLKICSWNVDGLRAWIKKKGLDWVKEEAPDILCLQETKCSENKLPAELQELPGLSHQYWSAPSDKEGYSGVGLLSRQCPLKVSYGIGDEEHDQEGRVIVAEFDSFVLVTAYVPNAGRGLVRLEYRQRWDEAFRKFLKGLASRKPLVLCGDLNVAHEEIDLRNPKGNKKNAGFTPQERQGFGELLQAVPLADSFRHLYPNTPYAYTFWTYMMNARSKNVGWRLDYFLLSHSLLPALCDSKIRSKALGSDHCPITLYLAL
For the compound `C[C@]12CC[C@H]3[C@@H](CCC4=CC(=O)CC[C@@]43C)[C@@H]1CC[C@@H]2C(=O)COS(=O)(=O)c1ccc(Br)cc1`, the inhibition result is “inactive”.

Another experiment concerns the target Tyrosyl-DNA phosphodiesterase 1 (Homo sapiens) (UniProt Q9NUW8). The experiment in a line: Ratio of IC50 of test compound to IC50 of NSC88915 for human Tdp1 assessed as blockade of enzyme-mediated hydrolysis of phosphodiester linkage between tyrosine and 3^-end of N14Y DNA substrate by SDS-PAGE electrophoresis.
Consider `Cc1ccc(S(=O)(=O)OCC(=O)[C@H]2CC[C@H]3[C@@H]4CCC5=CC(=O)CC[C@]5(C)[C@H]4CC[C@]23C)cc1`, for which the Ratio IC50 is less than 3.
On the same count and under the same terms, then `C[C@]12CC[C@H]3[C@@H](CCC4=CC(=O)CC[C@@]43C)[C@@H]1CC[C@@H]2C(=O)COS(=O)(=O)c1ccc(Cl)cc1`, with less than 3; and `C[C@]12CC[C@H]3[C@@H](CCC4=CC(=O)CC[C@@]43C)[C@@H]1CC[C@@H]2C(=O)COS(=O)(=O)c1ccccc1`, with less than 3.
The same measure, in the same setting: then `C[C@]12CC[C@H]3[C@@H](CCC4=CC(=O)CC[C@@]43C)[C@@H]1CC[C@@H]2C(=O)COS(=O)(=O)c1ccc(F)cc1`, with less than 3.
Still for that read-out and setting: then `C[C@]12CC[C@H]3[C@@H](CCC4=CC(=O)CC[C@@]43C)[C@@H]1CC[C@@H]2C(=O)COS(=O)(=O)c1ccc([N+](=O)[O-])cc1`, with less than 3.
